Measured values from publication PMC8330742, “New benzothieno[2,3-c]pyridines as non-steroidal CYP17 inhibitors: design, synthesis, anticancer screening, apoptosis induction, and in silico ADME profile studies” (Journal of Enzyme Inhibition and Medicinal Chemistry, 2021).

What was measured:
[1] = test system: SR; assay: NCI-60 SRB screen; assay type: cell-based; conditions: Homo sapiens, single dose 10^−5 M, read-out: Growth inhibition (%)
[2] = test system: OVCAR-3; assay: NCI-60 SRB screen; assay type: cell-based, human; conditions: Homo sapiens; OVCAR-3; single dose 10^−5 M; read-out: Growth inhibition (%)
[3] = test system: NCI-H522; assay: NCI-60 SRB screen; assay type: cell-based, human; conditions: Homo sapiens; NCI-H522; single dose 10^−5 M; read-out: Growth inhibition (%)
[4] = test system: MOLT-4; assay: NCI-60 SRB screen; assay type: cell-based; conditions: Homo sapiens; MOLT-4; single dose 10^−5 M; read-out: Growth inhibition (%)
[5] = test system: HL-60(TB); assay: NCI-60 SRB screen; assay type: cell-based, human; conditions: Homo sapiens; HL-60 (TB); single dose 10^−5 M; read-out: Growth inhibition (%)
[6] = test system: SF-295; assay: NCI-60 SRB screen; assay type: cell-based, human; conditions: Homo sapiens; SF-295; single dose 10^−5 M; read-out: Growth inhibition (%)
[7] = test system: OVCAR-4; assay: NCI-60 SRB screen; assay type: cell-based, human; conditions: Homo sapiens; OVCAR-4; single dose 10^−5 M; read-out: Growth inhibition (%)
[8] = test system: SW-620; assay: NCI-60 SRB screen; assay type: cell-based; conditions: Homo sapiens; SW-620; single dose 10^−5 M; read-out: Growth inhibition (%)
[9] = test system: SK-OV-3; assay: NCI-60 SRB screen; assay type: cell-based, human; conditions: Homo sapiens; SK-OV-3; single dose 10^−5 M; read-out: Growth inhibition (%)
[10] = test system: LOX IMVI; assay: NCI-60 SRB screen; assay type: cell-based, human; conditions: Homo sapiens, single dose 10^−5 M, read-out: Growth inhibition (%)
[11] = test system: NCI-H322M; assay: NCI-60 SRB screen; assay type: cell-based, human; conditions: Homo sapiens, single dose 10^−5 M, read-out: Growth inhibition (%)
[12] = test system: M14; assay: NCI-60 SRB screen; assay type: cell-based, human; conditions: Homo sapiens; M14; single dose 10^−5 M; read-out: Growth inhibition (%)
[13] = test system: UO-31; assay: NCI-60 SRB screen; assay type: cell-based, human; conditions: Homo sapiens; UO-31; single dose 10^−5 M; read-out: Growth inhibition (%)
[14] = test system: MALME-3M; assay: NCI-60 SRB screen; assay type: cell-based, human; conditions: Homo sapiens, single dose 10^−5 M, read-out: Growth inhibition (%)
[15] = test system: IGROV1; assay: NCI-60 SRB screen; assay type: cell-based, human; conditions: Homo sapiens, IGROV-1; IGROV1; single dose 10^−5 M; read-out: Growth inhibition (%)
[16] = test system: ACHN; assay: NCI-60 SRB screen; assay type: cell-based; conditions: Homo sapiens, single dose 10^−5 M, read-out: Growth inhibition (%)
[17] = test system: HOP-92; assay: NCI-60 SRB screen; assay type: cell-based, human; conditions: Homo sapiens; HOP-92; single dose 10^−5 M; read-out: Growth inhibition (%)
[18] = test system: COLO 205; assay: NCI-60 SRB screen; assay type: cell-based, human; conditions: Homo sapiens; COLO 205; single dose 10^−5 M; read-out: Growth inhibition (%)
[19] = test system: SN12C; assay: NCI-60 SRB screen; assay type: cell-based, human; conditions: Homo sapiens, SN12C; SN 12 C; single dose 10^−5 M; read-out: Growth inhibition (%)
[20] = test system: HCC-2998; assay: NCI-60 SRB screen; assay type: cell-based, human; conditions: Homo sapiens; HCC-2998; single dose 10^−5 M; read-out: Growth inhibition (%)
[21] = test system: SF-268; assay: NCI-60 SRB screen; assay type: cell-based, human; conditions: Homo sapiens; SF-268; single dose 10^−5 M; read-out: Growth inhibition (%)
[22] = test system: OVCAR-8; assay: NCI-60 SRB screen; assay type: cell-based, human; conditions: Homo sapiens; OVCAR-8; single dose 10^−5 M; read-out: Growth inhibition (%)
[23] = test system: 786-0; assay: NCI-60 SRB screen; assay type: cell-based; conditions: Homo sapiens; 786-0; single dose 10^−5 M; read-out: Growth inhibition (%)
[24] = test system: NCI-H226; assay: NCI-60 SRB screen; assay type: cell-based, human; conditions: Homo sapiens; NCI-H226; single dose 10^−5 M; read-out: Growth inhibition (%)
[25] = test system: HOP-62; assay: NCI-60 SRB screen; assay type: cell-based, human; conditions: Homo sapiens; HOP-62; single dose 10^−5 M; read-out: Growth inhibition (%)
[26] = test system: SK-MEL-5; assay: NCI-60 SRB screen; assay type: cell-based, human; conditions: Homo sapiens; SK-MEL-5; single dose 10^−5 M; read-out: Growth inhibition (%)
[27] = test system: HCT-15; assay: NCI-60 SRB screen; assay type: cell-based, human; conditions: Homo sapiens; HCT-15; single dose 10^−5 M; read-out: Growth inhibition (%)
[28] = test system: K-562; assay: NCI-60 SRB screen; assay type: cell-based, human; conditions: Homo sapiens, K562; K-562; single dose 10^−5 M; read-out: Growth inhibition (%)
[29] = test system: HCT-116; assay: NCI-60 SRB screen; assay type: cell-based, human; conditions: Homo sapiens; HCT-116; single dose 10^−5 M; read-out: Growth inhibition (%)
[30] = test system: A549/ATCC; assay: NCI-60 SRB screen; assay type: cell-based, human; conditions: Homo sapiens, single dose 10^−5 M, read-out: Growth inhibition (%)
[31] = test system: NCI-H460; assay: NCI-60 SRB screen; assay type: cell-based, human; conditions: Homo sapiens; NCI-H460; single dose 10^−5 M; read-out: Growth inhibition (%)
[32] = test system: EKVX; assay: NCI-60 SRB screen; assay type: cell-based, human; conditions: Homo sapiens, single dose 10^−5 M, read-out: Growth inhibition (%)
[33] = test system: TK-10; assay: NCI-60 SRB screen; assay type: cell-based, human; conditions: Homo sapiens; TK-10; single dose 10^−5 M; read-out: Growth inhibition (%)
[34] = test system: SK-MEL-28; assay: NCI-60 SRB screen; assay type: cell-based; conditions: Homo sapiens; SK-MEL-28; single dose 10^−5 M; read-out: Growth inhibition (%)
[35] = test system: CCRF-CEM; assay: NCI-60 SRB screen; assay type: cell-based; conditions: Homo sapiens, single dose 10^−5 M, read-out: Growth inhibition (%)
[36] = test system: SK-MEL-2; assay: NCI-60 SRB screen; assay type: cell-based, human; conditions: Homo sapiens; SK-MEL-2; single dose 10^−5 M; read-out: Growth inhibition (%)
[37] = test system: MDA-MB-435; assay: NCI-60 SRB screen; assay type: cell-based; conditions: Homo sapiens, MDA-MB-435, read-out: Growth inhibition (%)
[38] = test system: UACC-62; assay: NCI-60 SRB screen; assay type: cell-based, human; conditions: Homo sapiens; UACC-62; single dose 10^−5 M; read-out: Growth inhibition (%)
[39] = test system: NCI-H23; assay: NCI-60 SRB screen; assay type: cell-based, human; conditions: Homo sapiens; NCI-H23; single dose 10^−5 M; read-out: Growth inhibition (%)
[40] = test system: panel of 60 cancer cell lines; assay: NCI-60 SRB screen, mean or range over the panel; assay type: cell-based, human; conditions: Homo sapiens; mean over the cell lines; single dose 10^−5 M; read-out: Mean growth inhibition (%)
[41] = test system: HT-29; assay: NCI-60 SRB screen; assay type: cell-based; conditions: Homo sapiens; HT-29; single dose 10^−5 M; read-out: Growth inhibition (%)
[42] = test system: CAKI-1; assay: NCI-60 SRB screen; assay type: cell-based, human; conditions: Homo sapiens; CAKI-1; single dose 10^−5 M; read-out: Growth inhibition (%)
[43] = test system: UACC-257; assay: NCI-60 SRB screen; assay type: cell-based, human; conditions: Homo sapiens, UACC-257; UACC-275 (so in the source); single dose 10^−5 M; read-out: Growth inhibition (%)
[44] = test system: NCI/ADR-RES; assay: NCI-60 SRB screen; assay type: cell-based, human; conditions: Homo sapiens, single dose 10^−5 M, read-out: Growth inhibition (%)
[45] = test system: KM12; assay: NCI-60 SRB screen; assay type: cell-based, human; conditions: Homo sapiens; KM12; single dose 10^−5 M; read-out: Growth inhibition (%)

COc1ccc(C=C2Sc3c(F)cccc3C2=O)c(OC)c1 [Compound 2a, 2-(2,4-Dimethoxybenzylidene)-7-fluoro[1]benzothiophen-3(2H)-one]
inhibition at 10 µM [1]: 6.3% | inhibition at 10 µM [2]: -7.34% | inhibition at 10 µM [3]: 6.14% | inhibition at 10 µM [4]: 4.1% | inhibition at 10 µM [5]: 11% | inhibition at 10 µM [6]: -4.69% | inhibition at 10 µM [7]: -6.44% | inhibition at 10 µM [8]: -4.67% | inhibition at 10 µM [9]: 6.36% | inhibition at 10 µM [10]: -0.02% | inhibition at 10 µM [11]: 0.25% | inhibition at 10 µM [12]: -5.61% | inhibition at 10 µM [13]: 25% | inhibition at 10 µM [14]: 4.19% | inhibition at 10 µM [15]: 0.46% | inhibition at 10 µM [16]: -4.06% | inhibition at 10 µM [17]: -8.14% | inhibition at 10 µM [18]: -16% | inhibition at 10 µM [19]: -0.73% | inhibition at 10 µM [20]: -12.8% | inhibition at 10 µM [21]: 4.51% | inhibition at 10 µM [22]: -4.32% | inhibition at 10 µM [23]: -12.2% | inhibition at 10 µM [24]: 0.31% | inhibition at 10 µM [25]: 5.99% | inhibition at 10 µM [26]: -2.91% | inhibition at 10 µM [27]: -9.73% | inhibition at 10 µM [28]: 4.76% | inhibition at 10 µM [29]: -3.66% | inhibition at 10 µM [30]: -7.82% | inhibition at 10 µM [31]: -6.08% | inhibition at 10 µM [32]: -5.71% | inhibition at 10 µM [33]: -34.9% | inhibition at 10 µM [34]: -7.93% | inhibition at 10 µM [35]: -5.14% | inhibition at 10 µM [36]: -17.9% | inhibition at 10 µM [37]: -0.27% | inhibition at 10 µM [38]: 7.33% | inhibition at 10 µM [39]: -4.04% | inhibition at 10 µM [40]: -3.74% | inhibition at 10 µM [41]: -9.18% | inhibition at 10 µM [42]: 11.9% | inhibition at 10 µM [43]: -15.2% | inhibition at 10 µM [44]: -3.61% | inhibition at 10 µM [45]: -5.55%
